Laboratory results from PubChem BioAssay (NCI).
Values joined by “and” are separate entries in the source; they are usually repeats but may differ in a detail not shown here. Identical values can stand only once.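 96-well plates; 48 h exposure; 5 concentrations. Endpoints by linear interpolation between flanking doses. Not reached: highest tested concentration assigned. The concentration for 50% growth inhibition is given as GI50. TGI: total growth inhibition.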

What was measured:
Test in all cases: DTP human tumour cell line panel, 48 h
SF-268 CNS = system: SF-268 CNS
DU-145 prostate = system: DU-145 prostate
A498 renal = system: A498 renal
LOX IMVI melanoma = system: LOX IMVI melanoma
HOP-92 NSCLC = system: HOP-92 NSCLC
OVCAR-8 ovarian = system: OVCAR-8 ovarian
SW-620 colon = system: SW-620 colon
BT-549 breast = system: BT-549 breast
NCI-H226 lung = system: NCI-H226 lung
SR leukemia = system: SR leukemia

Structure (SMILES) | GI50 (SF-268 CNS) | TGI (SF-268 CNS) | GI50 (DU-145 prostate) | TGI (DU-145 prostate) | GI50 (A498 renal) | TGI (A498 renal) | GI50 (LOX IMVI melanoma) | TGI (LOX IMVI melanoma) | GI50 (HOP-92 NSCLC) | TGI (HOP-92 NSCLC) | GI50 (OVCAR-8 ovarian) | TGI (OVCAR-8 ovarian) | GI50 (SW-620 colon) | TGI (SW-620 colon) | GI50 (BT-549 breast) | TGI (BT-549 breast) | GI50 (NCI-H226 lung) | TGI (NCI-H226 lung) | GI50 (SR leukemia) | TGI (SR leukemia)
Clc1ccc(Nc2nnc(COc3ccccc3)c3ccccc23)cc1 | 2.23 µM | 12.9 µM | 2.65 µM | 10.5 µM | 0.686 µM | 3.64 µM | 1.29 µM | 4.85 µM | 0.331 µM | 3.09 µM | 3.49 µM | 15 µM | 2.86 µM | 7.79 µM | 2.05 µM | 6.65 µM | 1.56 µM | 6.58 µM | 1.23 µM | 11.2 µM
CN1CCN(CCCn2c3c(sc4ncccc43)c(=O)n3nnc(-c4ccccc4)c23)CC1 | 1.68 µM | 3.32 µM | 1.67 µM | 3.24 µM | 6.7 µM | 21.3 µM | 1.39 µM | 2.75 µM | 9.5 µM | 28.4 µM | 1.88 µM | 4.31 µM | 1.52 µM | 3.25 µM | 14.7 µM | 30.6 µM | 15.1 µM | 31.9 µM | 0.241 µM | 0.603 µM
CCN1C(=O)N(CC)C2C1NN=c1s/c(=C\c3ccc(Br)cc3)c(=O)n12 (centres undefined) | 0.852 µM | > 100 µM | 0.352 µM | > 100 µM | 0.0833 µM | > 100 µM | 0.185 µM | > 100 µM | 0.0365 µM | > 63.7 µM | 0.416 µM | > 100 µM | 0.0762 µM | > 100 µM | 0.196 µM | 16.4 µM |  | > 100 µM | 0.04 µM | > 100 µM
NC(=O)C1CCCN1Cc1ccc2c(c1)OCO2 (centres undefined) |  | > 100 µM |  | > 100 µM |  | > 100 µM |  | > 100 µM |  | > 100 µM |  | > 100 µM |  | > 100 µM |  | > 100 µM |  | > 100 µM |  | > 100 µM
COc1ccc(COc2ccc(Cc3cnc(N)nc3N)cc2OC)cc1 | > 25 µM | > 25 µM | > 25 µM | > 25 µM | 2.27 µM | > 25 µM | > 25 µM | > 25 µM | 1.29 µM | > 21 µM | > 25 µM | > 25 µM | > 25 µM | > 25 µM | 12.1 µM | > 25 µM | 16 µM | > 25 µM | 24.3 µM | > 25 µM
CC1(/C=C/c2ccc(-c3ccccc3)cc2)CCn2cnc3ncnc(c32)N1O (centres undefined) | 0.405 µM | 15.8 µM | 0.53 µM | > 56.7 µM | 0.0387 µM | 3.99 µM | 0.302 µM | 21.6 µM | 3.72 µM | 65.6 µM | 0.419 µM | > 55.1 µM | 0.529 µM | 24.6 µM | 0.495 µM | 16.9 µM | 0.571 µM | 20.2 µM | 0.31 µM | > 100 µM
CCN(Cc1c(F)cccc1C(F)(F)F)c1ccc(CO)c(Cl)c1 | 16.6 µM | 31.5 µM | 15.9 µM | 29.8 µM | < 0.0191 µM | 0.0463 µM | 18.1 µM | 33.3 µM | 0.856 µM | 16 µM | 14.6 µM | 31.3 µM | 0.79 µM | 20.4 µM | 17.7 µM | 32 µM | 0.035 µM | 0.154 µM | 14.5 µM | 36.5 µM
Cn1cc(-c2[nH]c3cc(NC(=O)[C@H](N)C4CCCCC4)cc4c3c2C=NNC4=O)cn1 | 0.305 µM and 0.324 µM | 13.1 µM and > 10 µM | 0.508 µM and 0.528 µM | 19.8 µM and > 10 µM | 0.0542 µM and 0.0975 µM | 0.352 µM and 0.579 µM | 0.305 µM and 0.268 µM | 3.52 µM and 1.66 µM | 0.0783 µM and 0.2 µM | 0.821 µM and > 4.52 µM | 0.264 µM and 0.351 µM | 4.08 µM and > 10 µM | 0.53 µM and 0.829 µM | 13.6 µM and > 10 µM | 0.215 µM and 0.375 µM | 1.41 µM and 5.85 µM | 0.963 µM and 0.398 µM | 17.8 µM and > 10 µM | 0.0566 µM and 0.12 µM | 0.622 µM and 1.1 µM
CC(C)Cc1cc(-c2cccn2C)c(C#N)c(=O)[nH]1 | > 100 µM | > 100 µM | > 100 µM | > 100 µM | > 100 µM | > 100 µM | > 100 µM | > 100 µM | > 100 µM | > 100 µM | > 100 µM | > 100 µM | > 100 µM | > 100 µM | > 100 µM | > 100 µM | > 100 µM | > 100 µM | 59.7 µM | > 100 µM
S=C1NC(c2ccccc2)NC(c2ccccc2)S1 (centres undefined) |  | > 100 µM |  | > 100 µM |  | > 100 µM |  | > 100 µM |  | > 100 µM |  | > 100 µM |  | > 100 µM |  | > 100 µM |  | > 100 µM |  | > 100 µM
O=C(Nc1cccc(Cl)c1)Nc1cc(C(F)(F)F)ccc1Cl | 3.55 µM | 11.7 µM | 2.95 µM | 10.2 µM | 2.16 µM | 6.36 µM | 2.75 µM | 6.96 µM |  |  | 3.16 µM | 7.75 µM | 3.28 µM | 10.6 µM | 2.81 µM | 10.1 µM | 3.25 µM | 10.5 µM | 3.78 µM | 38 µM
OC(CBr)C(O)C(O)C(O)CBr (centres undefined) | > 40.6 µM and 19.3 µM | > 100 µM |  | > 100 µM |  | > 100 µM |  | > 100 µM | 35.8 µM and > 86.8 µM | > 100 µM |  | > 100 µM |  | > 100 µM |  | > 77 µM |  | > 100 µM |  | > 100 µM
C=C1CC2(CC(c3ccccc3C)OC(c3ccccc3C)C2)OC1=O (centres undefined) |  | 3.6 µM |  | 24.6 µM |  | 21.6 µM |  | 3.05 µM |  | 3.18 µM |  | 4.63 µM |  | 3.59 µM |  | 4.09 µM |  | 18.7 µM |  | > 26.8 µM
COc1cc2cc(C(=O)Nc3ccccc3)c(N)nc2cc1OC | 81.8 µM | > 100 µM | 80.3 µM | > 100 µM | 4.7 µM | 30.9 µM | 42.3 µM | > 100 µM | 8.29 µM | 90.1 µM | 33.5 µM | > 100 µM | > 100 µM | > 100 µM | 25.1 µM | > 100 µM | 54.4 µM | > 100 µM | 33.9 µM | > 100 µM
